Source: US7582645B2, “Pyrimidine derivatives for treatment of hyperproliferative disorders” (Bayer Pharmaceuticals Corporation, priority 2003, dated 2009)
pIC50: −log10 of the molar value. Where a name gives a salt, the structure may show the parent alone.

Tested on: HCT116 cells
Assay: HCT116 cytotoxic activity assay (Alamar Blue, 72 h)
Type: cell-based
Conditions: Homo sapiens, HCT-116, 72 h compound exposure
Protocol: Representative compounds of this invention were tested for cytotoxicity using the above-described assay procedure with the following results: […]

[1] = greater than 500 nM but less than or equal to 2 μM

| Structure (SMILES) | pIC50 (less than or equal to 500 nM) | other results |
| --- | --- | --- |
| CN(C)[C@H]1CCN(c2cc(Oc3ccc(Nc4cc(-c5ccccc5)nc(N)n4)cc3)ccn2)C1 [Example 144, N4*-[4-({2-[(3S)-3-(dimethylamino)pyrrolidin-1-yl]pyridin-4-yl}oxy)phenyl]-6-phenylpyrimidine-2,4-diamine] |  | pIC50 [1]: 5.70 to 6.30 |
| Nc1nc(Nc2ccc(Oc3ccnc(N4CCC[C@H]4CO)c3)cc2)cc(-c2ccccc2)n1 [Example 145, [(2S)-1-(4-{4-[(2-amino-6-phenylpyrimidin-4-yl)amino]phenoxy}pyridin-2-yl)pyrrolidin-2-yl]methanol] | ≥ 6.30 |  |
| Nc1nc(Nc2ccc(Oc3ccnc(N4CC[C@@H](O)C4)c3)cc2)cc(-c2ccccc2)n1 [Example 146, (3R)-1-(4-{4-[(2-amino-6-phenylpyrimidin-4-yl)amino]phenoxy}pyridin-2-yl)pyrrolidin-3-ol] | ≥ 6.30 |  |
| COC[C@H]1CCCN1c1cc(Oc2cccc(Nc3cc(-c4ccccc4)nc(N)n3)c2)ccn1 [Example 147, N4*-[3-({2-[(2R)-2-(methoxymethyl)pyrrolidin-1-yl]pyridin-4-yl}oxy)phenyl]-6-phenylpyrimidine-2,4-diamine] |  | pIC50 (greater than 2 μM): < 5.70 |
| Nc1nc(Nc2ccc(Oc3ccnc(C(F)(F)F)c3)cc2)cc(-c2ccc(NC(=O)CCC(=O)O)cc2)n1 [Example 148, 4-[(4-{2-amino-6-[(4-{[2-(trifluoromethyl)pyridin-4-yl]oxy}phenyl)amino]pyrimidin-4-yl}phenyl)amino]-4-oxobutanoic acid] |  | pIC50 [1]: 5.70 to 6.30 |
| COc1cc(-c2cc(Nc3ccc(Oc4ccnc(C(F)(F)F)c4)cc3)nc(N)n2)ccc1OC(=O)CNC(=O)OC(C)(C)C [Example 149, 4-{2-amino-6-[(4-{[2-(trifluoromethyl)pyridin-4-yl]oxy}phenyl)amino]pyrimidin-4-yl}-2-methoxyphenyl N-(tert-butoxycarbonyl)glycinate] | ≥ 6.30 |  |
| COc1cc(-c2cc(Nc3ccc(Oc4ccnc(C(F)(F)F)c4)cc3)nc(N)n2)ccc1OC(=O)CN [Example 150, 4-{2-amino-6-[(4-{[2-(trifluoromethyl)pyridin-4-yl]oxy}phenyl)amino]pyrimidin-4-yl}-2-methoxyphenyl glycinate hydrochloride] | ≥ 6.30 |  |
| COc1cc(-c2cc(Nc3ccc(Oc4ccnc(C(F)(F)F)c4)cc3)nc(N)n2)ccc1N [Example 153, 6-(4-amino-3-methoxyphenyl)-N4*-(4-{[2-(trifluoromethyl)pyridin-4-yl]oxy}phenyl) pyrimidine-2,4-diamine] | ≥ 6.30 |  |
| Cc1ccccc1-c1cc(Nc2ccc(Oc3ccnc(CN)c3)cc2)nc(N)n1 [Example 154, N4*-(4-{[2-(aminomethyl)pyridin-4-yl]oxy}phenyl)-6-(2-methylphenyl) pyrimidine-2,4-diamine] | ≥ 6.30 |  |
| Nc1nc(Nc2ccc(Oc3ccnc(C(F)(F)F)c3)cc2)cc(-c2ccccc2C(F)(F)F)n1 [Example 155, 6-[2-(trifluoromethyl)phenyl]-N4*-(4-{[2-(trifluoromethyl)pyridin-4-yl]oxy}phenyl)pyrimidine-2,4-diamine] | ≥ 6.30 |  |
| CCc1ccccc1-c1cc(Nc2ccc(Oc3ccnc(C(F)(F)F)c3)cc2)nc(N)n1 [Example 156, 6-(2-ethylphenyl)-N4*-(4-{[2-(trifluoromethyl)pyridin-4-yl]oxy}phenyl) pyrimidine-2,4-diamine] | ≥ 6.30 |  |
| CCOc1ccccc1-c1cc(Nc2ccc(Oc3ccnc(C(F)(F)F)c3)cc2)nc(N)n1 [Example 157, 6-(2-ethoxyphenyl)-N4*-(4-{[2-(trifluoromethyl)pyridin-4-yl]oxy}phenyl) pyrimidine-2,4-diamine] | ≥ 6.30 |  |
| Cc1ccc(F)c(-c2cc(Nc3ccc(Oc4ccnc(C(F)(F)F)c4)cc3)nc(N)n2)c1 [Example 158, 6-(2-fluoro-5-methylphenyl)-N4*-(4-{[2-(trifluoromethyl)pyridin-4-yl]oxy}phenyl)pyrimidine-2,4-diamine] | ≥ 6.30 |  |
| Nc1nc(Nc2ccc(Oc3ccnc(C(F)(F)F)c3)cc2)cc(-c2cccc(F)c2F)n1 [Example 159, 6-(2,3-difluorophenyl)-N4*-(4-{[2-(trifluoromethyl)pyridin-4-yl]oxy}phenyl)pyrimidine-2,4-diamine] | ≥ 6.30 |  |
| Nc1nc(Nc2ccc(Oc3ccnc(C(F)(F)F)c3)cc2)cc(-c2cc(F)ccc2F)n1 [Example 160, 6-(2,5-difluorophenyl)-N4*-(4-{[2-(trifluoromethyl)pyridin-4-yl]oxy}phenyl)pyrimidine-2,4-diamine] | ≥ 6.30 |  |
| Nc1nc(Nc2ccc(Oc3ccnc(C(F)(F)F)c3)cc2)cc(-c2ccccc2OC(F)(F)F)n1 [Example 161, 6-[2-(trifluoromethoxy)phenyl]-N4*-(4-{[2-(trifluoromethyl)pyridin-4-yl]oxy}phenyl)pyrimidine-2,4-diamine] | ≥ 6.30 |  |
| CC(C)c1ccccc1-c1cc(Nc2ccc(Oc3ccnc(C(F)(F)F)c3)cc2)nc(N)n1 [Example 162, 6-(2-isopropylphenyl)-N4*- (4-{[2-(trifluoromethyl)pyridin-4-yl]oxy}phenyl) pyrimidine-2,4-diamine] | ≥ 6.30 |  |
| CCc1ccccc1-c1cc(Nc2ccc(Oc3ccnc(CN)c3)cc2)nc(N)n1 [Example 163, N4*-(4-{[2-(aminomethyl)pyridin-4-yl]oxy}phenyl)-6-(2-ethylphenyl)pyrimidine-2,4-diamine] | ≥ 6.30 |  |

| Structure (SMILES) | pIC50 (less than or equal to 500 nM) | other results |
| --- | --- | --- |
| Nc1ccc(-c2cc(Nc3ccc(Oc4ccnc(C(F)(F)F)c4)cc3)nc(N)n2)cc1 [Example 164, 6-(4-aminophenyl)-N4*-(4-{[2-(trifluoromethyl)pyridin-4-yl]oxy}phenyl) pyrimidine-2,4-diamine hydrochloride] | ≥ 6.30 |  |
| COc1cc(-c2cc(Nc3ccc(Oc4ccnc(C(F)(F)F)c4)cc3)nc(N)n2)ccc1O [Example 166, 4-{2-amino-6-[(4-{[2-(trifluoromethyl)pyridin-4-yl]oxy}phenyl)amino]pyrimidin-4-yl}-2-methoxyphenol] | ≥ 6.30 |  |
| Nc1nc(Nc2ccc(Oc3ccnc(C(F)(F)F)c3)cc2)cc(-c2cccc(O)c2)n1 [Example 167, 3-{2-amino-6-[(4-{[2-(trifluoromethyl)pyridin-4-yl]oxy}phenyl)amino]pyrimidin-4-yl}phenol] | ≥ 6.30 |  |
| COc1ccc(-c2cc(Nc3ccc(Oc4ccnc(C(F)(F)F)c4)cc3)nc(N)n2)cc1N [Example 168, 6-(3-amino-4-methoxyphenyl)-N4*-(4-{[2-(trifluoromethyl)pyridin-4-yl]oxy}phenyl) pyrimidine-2,4-diamine] | ≥ 6.30 |  |
| Nc1cccc(-c2cc(Nc3ccc(Oc4ccnc(C(F)(F)F)c4)cc3)nc(N)n2)c1 [Example 170, 6-(3-aminophenyl)-N4*-(4-{[2-(trifluoromethyl)pyridin-4-yl]oxy}phenyl) pyrimidine-2,4-diamine hydrochloride] | ≥ 6.30 |  |
| COc1cc(-c2cc(Nc3ccc(Oc4ccnc(C#N)c4)cc3)nc(N)n2)ccc1O [Example 171, 4-(4-{[2-amino-6-(4-hydroxy-3-methoxyphenyl)pyrimidin-4-yl]amino}phenoxy)pyridine-2-carbonitrile] | ≥ 6.30 |  |
| COc1ccc(-c2cc(Nc3ccc(Oc4ccnc(C#N)c4)cc3)nc(N)n2)cc1N [Example 172, 4-(4-{[2-amino-6-(3-amino-4-methoxyphenyl)pyrimidin-4-yl]amino}phenoxy)pyridine-2-carbonitrile] |  | pIC50 [1]: 5.70 to 6.30 |
| COc1cc(-c2cc(Nc3ccc(Oc4ccnc(C(N)=O)c4)cc3)nc(N)n2)ccc1N [Example 173, 4-(4-{[2-amino-6-(4-amino-3-methoxyphenyl)pyrimidin-4-yl]amino}phenoxy)pyridine-2-carboxamide] | ≥ 6.30 |  |
| Cc1cc(O)ccc1-c1cc(Nc2ccc(Oc3ccnc(C(F)(F)F)c3)cc2)nc(N)n1 [Example 174, 4-{2-amino-6-[(4-{[2-(trifluoromethyl)pyridin-4-yl]oxy}phenyl)amino]pyrimidin-4-yl}-3-methylphenol] | ≥ 6.30 |  |
| Nc1nc(Nc2ccc(Oc3ccnc(C(F)(F)F)c3)cc2)cc(-c2ccccc2CO)n1 [Example 175, (2-{2-amino-6-[(4-{[2-(trifluoromethyl)pyridin-4-yl]oxy}phenyl)amino]pyrimidin-4-yl}phenyl) methanol] | ≥ 6.30 |  |
| Nc1nc(Nc2ccc(Oc3ccnc(C(F)(F)F)c3)cc2)cc(-c2ccc(O)cc2C(F)(F)F)n1 [Example 176, 4-{2-amino-6-[(4-{[2-(trifluoromethyl)pyridin-4-yl]oxy}phenyl)amino]pyrimidin-4-yl}-3-(trifluoromethyl)phenol] |  | pIC50 [1]: 5.70 to 6.30 |
| Nc1nc(Nc2ccc(Oc3ccnc(C(F)(F)F)c3)cc2)cc(-c2ccc(N)c(F)c2)n1 [Example 177, 6-(4-amino-3-fluorophenyl)-N4*-(4-{[2-(trifluoromethyl)pyridin-4-yl]oxy}phenyl)pyrimidine-2,4-diamine] | ≥ 6.30 |  |
| COc1cc(-c2cc(Nc3ccc(Oc4ccnc(C#N)c4)cc3)nc(N)n2)ccc1NC(=O)OC(C)(C)C [Example 178, tert-butyl {4-[2-amino-6-({4-[(2-cyanopyridin-4-yl)oxy]phenyl}amino)pyrimidin-4-yl]-2-methoxyphenyl}carbamate] |  | pIC50 (greater than 2 μM): < 5.70 |
| Cc1cc(-c2cc(Nc3ccc(Oc4ccnc(C(F)(F)F)c4)cc3)nc(N)n2)ccc1N [Example 180, 6-(4-amino-3-methylphenyl)-N4*-(4-{[2-(trifluoromethyl)pyridin-4-yl]oxy}phenyl)pyrimidine-2,4-diamine] | ≥ 6.30 |  |
| Nc1ccc(-c2cc(Nc3ccc(Oc4ccnc(C(F)(F)F)c4)cc3)nc(N)n2)cn1 [Example 181, 6-(6-aminopyridin-3-yl)-N4*-(4-{[2-(trifluoromethyl)pyridin-4-yl]oxy}phenyl)pyrimidine-2,4-diamine] | ≥ 6.30 |  |
| N#Cc1cc(Oc2ccc(Nc3cc(-c4ccc(N)nc4)nc(N)n3)cc2)ccn1 [Example 183, 4-(4-{[2-amino-6-(6-aminopyridin-3-yl)pyrimidin-4-yl]amino}phenoxy)pyridine-2-carbonitrile] | ≥ 6.30 |  |
| COc1cc(-c2cc(Nc3ccc(Oc4ccnc(C(F)(F)F)c4)cc3)nc(N)n2)ccc1OS(N)(=O)=O [Example 185, 4-{2-amino-6-[(4-{[2-(trifluoromethyl)pyridin-4-yl]oxy}phenyl)amino]pyrimidin-4-yl}-2-methoxyphenyl sulfamate] | ≥ 6.30 |  |
